One assay concerns the target Cbl-b (Homo sapiens (Human), UniProt Q13191). The assay is described as follows: Cbl-b LCK Ub TR-FRET assay (Cbl-b Lck HTRF). The class given is biochemical. Here is the method: Compounds were 3-fold serially diluted in DMSO in a 384-well polypropylene plate (#P-05525-BC; Labcyte) to generate a source plate with 10 concentrations of each compound, top concentration=2 mM. 80 nL of DMSO or compounds were transferred to each well of a black 384-well ProxiPlate (#6008260; PerkinElmer) using a Labcyte Echo. 1×assay buffer (50 mM HEPES pH7.0, 100 mM NaCl, 0.01% BSA, 0.01% Triton-X100, 1 mM DTT), 2×enzyme solution (16 nM Biotin-Cbl-b or 12 nM Biotin-c-Cbl in 1× assay buffer), 2×kinase mixture (120 nM His-LCK, 1 mM ATP, 10 mM MgCl2 in assay buffer) and 2.33×detection mixture (4.66×solution 1: 163 nM Anti-HA-D2 antibody (#610HADAB; PerkinElmer), 27.96 nM Streptavidin-EU (#AD0062; PerkinElmer), 1.398 mM EDTA in 1×assay buffer+4.66×solution 2: 2.796 μM UBE2D2/Methylated-HA-Ubiquitin thioester adduct (BostonBiochem) in 1×assay buffer) were prepared. 4 μL of 2× enzyme solution was added to each well containing compound, briefly centrifuged to mix, and incubated for 60 min at room temperature. 4 μL of 2× kinase mixture was added, briefly centrifuged to mix, and incubated for 90 min. at room temperature. 6 μL of detection mixture was added to all wells and briefly centrifuged before incubating for 20 min at room temperature. Plates were read for TR-FRET using an Envision at excitation 340 nm, emission at 615 and 665 nm, 4 flashes per well. IC50 was generated using no LCK as the low control and DMSO as the high control.
Cbl-b Lck HTRF data in Table 7 is measured according to Example 76 herein; C-cbl Lck HTRF data is measured according to Example 76 herein.

The target of another assay is c-Cbl (Homo sapiens (Human), UniProt P22681). The assay is described as follows: C-Cbl LCK Ub TR-FRET assay (c-cbl Lck HTRF). It is filed as biochemical. Conditions: for (fold-selectivity): C-cbl Lck HTRF IC50 relative to Cbl-b Lck HTRF IC50. How it is done: 6 μL of detection mixture was added to all wells and briefly centrifuged before incubating for 20 min at room temperature. […] IC50 was generated using no LCK as the low control and DMSO as the high control.
(In TR-FRET formats the signal depends on donor and acceptor labels being close together.)

A word on the IC50: it is the concentration needed to halve the response being measured. A higher IC50 goes with weaker potency.

Structures are written as SMILES.

Cbl-b, sequence (Q13191 40-426): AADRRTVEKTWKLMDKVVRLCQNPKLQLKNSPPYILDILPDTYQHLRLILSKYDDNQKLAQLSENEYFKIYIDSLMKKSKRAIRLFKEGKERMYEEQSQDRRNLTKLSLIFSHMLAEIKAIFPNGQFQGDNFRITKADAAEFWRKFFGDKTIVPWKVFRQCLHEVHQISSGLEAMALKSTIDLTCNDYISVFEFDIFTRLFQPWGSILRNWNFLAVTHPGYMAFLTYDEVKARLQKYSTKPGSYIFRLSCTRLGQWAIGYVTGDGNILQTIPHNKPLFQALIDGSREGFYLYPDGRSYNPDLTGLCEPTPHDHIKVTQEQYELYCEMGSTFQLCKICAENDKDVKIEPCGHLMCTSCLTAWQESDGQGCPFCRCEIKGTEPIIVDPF
c-Cbl, sequence (P22681 47-435): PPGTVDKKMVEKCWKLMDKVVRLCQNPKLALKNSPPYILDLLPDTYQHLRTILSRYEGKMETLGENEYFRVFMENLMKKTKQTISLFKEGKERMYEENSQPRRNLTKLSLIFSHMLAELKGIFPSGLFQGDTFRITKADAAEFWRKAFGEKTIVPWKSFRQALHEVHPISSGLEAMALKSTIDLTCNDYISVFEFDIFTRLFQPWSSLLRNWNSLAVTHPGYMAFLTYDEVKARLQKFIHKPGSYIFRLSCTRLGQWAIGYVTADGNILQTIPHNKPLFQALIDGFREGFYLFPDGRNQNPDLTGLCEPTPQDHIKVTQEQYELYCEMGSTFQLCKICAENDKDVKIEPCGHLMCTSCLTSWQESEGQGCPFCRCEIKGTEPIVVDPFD

At Cbl-b, `CC(C)[C@H]1CN(C)CCN1Cc1cc2c(c(C(F)(F)F)c1)CN(c1cccc(C3([C@H](F)c4nncn4-c4ccccc4)COC3)c1)C2=O` [Compound 260, 2-(3-(3-((S)-fluoro(4-phenyl-4H-1,2,4-triazol-3-yl)methyl)oxetan-3-yl)phenyl)-6-(((S)-2-isopropyl-4-methylpiperazin-1-yl)methyl)-4-(trifluoromethyl)isoindolin-1-one] came in with an IC50 of 5600 nM. Moreover, on c-Cbl, the IC50 was 8300 nM and the “(fold-selectivity)” value is reported as “(1.5x)”.
On to `CC[C@@H]1CC[C@H](c2cc3c(c(C(F)(F)F)c2)CN(c2cccc(C4(Cc5nncn5C)CC(F)(F)C4)c2)C3=O)N1` [Compound 476, 2-(3-(3,3-difluoro-1-((4-methyl-4H-1,2,4-triazol-3-yl)methyl)cyclobutyl)phenyl)-6-((2R,5R)-5-ethylpyrrolidin-2-yl)-4-(trifluoromethyl)isoindolin-1-one], for which the IC50 against Cbl-b was 47 nM. In addition, at c-Cbl, the IC50 was determined as 39 nM and the “(fold-selectivity)” value is “(0.83x)”.
The like results for `CC(C)[C@H]1CN(C)CCN1Cc1cc2c(c(C(F)(F)F)c1)CN(c1cccc(C3(C(F)(F)c4nncn4C)CC3)c1)C2=O` [Compound 221, (S)-2-(3-(1-(Difluoro(4-methyl-4H-1,2,4-triazol-3-yl)methyl)cyclopropyl)phenyl)-6-((2-isopropyl-4-methylpiperazin-1-yl)methyl)-4-(trifluoromethyl)isoindolin-1-one] were, in that order, 15 nM, 15 nM and 1.0x.
On the same counts, the results for `Cn1cnnc1CC(F)c1cccc(N2Cc3c(cccc3C(F)(F)F)C2=O)c1` (racemic) [Compound 14, 2-[3-[1-fluoro-2-(4-methyl-4H-1,2,4-triazol-3-yl)ethyl]phenyl]-4-(trifluoromethyl)isoindolin-1-one] are 10000 nM, 20000 nM and 2.0x.
Molecule `C[C@@H](c1cc2c(c(C(F)(F)F)c1)CN(c1cccc(C3([C@H](F)c4nncn4C)COC3)c1)C2=O)N1CC(C)(F)C1` [Compound 110, 2-(3-(3-((S)-fluoro(4-methyl-4H-1,2,4-triazol-3-yl)methyl)oxetan-3-yl)phenyl)-6-((S)-1-(3-fluoro-3-methylazetidin-1-yl)ethyl)-4-(trifluoromethyl)isoindolin-1-one] displayed an IC50 at Cbl-b of 320 nM. Besides, at c-Cbl, the midpoint of inhibition, the IC50, lay at 650 nM and the “(fold-selectivity)” value is reported as 2.0x.
For `COCC1(O)CN(Cc2cc3c(c(C(F)(F)F)c2)CN(c2cccc(C4([C@@H](F)c5nncn5C)COC4)c2)C3=O)C1` [Compound 185, (R)-2-(3-(3-(fluoro(4-methyl-4H-1,2,4-triazol-3-yl)methyl)oxetan-3-yl)phenyl)-6-((3-hydroxy-3-(methoxymethyl)azetidin-1-yl)methyl)-4-(trifluoromethyl)isoindolin-1-one], at Cbl-b, inhibition was half-maximal at 72 nM (IC50). On c-Cbl, it took 110 nM to reach half-maximal inhibition (IC50) and the “(fold-selectivity)” value was 1.5x.
In turn, `CC(C)[C@H]1CN(Cc2cc3c(c(C(F)(F)F)c2)CN(c2cccc(C4([C@H](F)c5nncn5C)COC4)c2)C3=O)CCN1` [Compound 91] had a half-maximal inhibitory concentration (IC50) against Cbl-b of 140 nM. At c-Cbl, the IC50 is 170 nM and the “(fold-selectivity)” value came out at 1.2x.
The molecule `CO[C@H]1CCN(Cc2cc3c(c(C(F)(F)F)c2)CN(c2cccc(C4([C@H](F)c5nncn5C)COC4)c2)C3=O)C1` [Compound 132, 2-(3-(3-((S)-fluoro(4-methyl-4H-1,2,4-triazol-3-yl)methyl)oxetan-3-yl)phenyl)-6-(((S)-3-methoxypyrrolidin-1-yl)methyl)-4-(trifluoromethyl)isoindolin-1-one] returned an IC50 against Cbl-b of 230 nM. Besides, at c-Cbl, the IC50 was found to be 470 nM and the “(fold-selectivity)” value is recorded as 2.1x.

Source of the values: US20250230147A1, “LACTAMS AS CBL-B INHIBITORS” (Genentech, Inc., priority 2021, published 2025).
